Measurements from ChEMBL document CHEMBL4651402, “Screening of ~5500 FDA-approved drugs and clinical candidates for anti-SARS-CoV-2 activity” (2021).

Tested on: SARS-CoV-2
Assay: microbe, parasite or virus in culture
Settings: Severe acute respiratory syndrome coronavirus 2, Vero C1008, 48 h

SMILES	IC50 [µM]	IC50 (read-out: pIC50 (converted)) [µM]
CCOc1nc2cccc(C(=O)O)c2n1Cc1ccc(-c2ccccc2-c2nnn[nH]2)cc1	> 20	> 20
NC(=O)[C@@H](CCC(F)(F)F)N(Cc1ccc(-c2ncon2)cc1F)S(=O)(=O)c1ccc(Cl)cc1	> 20	> 20
CCC(C)(C)/N=C(\NC#N)Nc1cccnc1	> 20	> 20
CC(=O)OCC1=C(C(=O)O)N2C(=O)C(NC(=O)CSc3ccncc3)C2SC1 (stereo unspecified)	> 20	> 20
CC(=O)NC(CC(=O)O)C(=O)O (stereo unspecified)	> 20	> 20
CN(C)CCSc1nc2ccccc2cc1-c1ccccc1	> 20	> 20
O=S(=O)(O)c1ccc2ccccc2c1	> 20	> 20
COc1ccc(-c2ccc3cc(C(=O)O)ccc3c2)cc1C12CC3CC(CC(C3)C1)C2	> 20	> 20
N#CC[C@@H](C1CCCC1)n1cc(-c2ncnc3[nH]ccc23)cn1	> 20	> 20
Cc1c[nH]c2ccccc12	> 20	> 20
CCOC(=O)C(CCc1ccccc1)NC(C)C(=O)N1CC2(CC1C(=O)O)SCCS2 (stereo unspecified)	> 20	> 20
N[C@H](Cc1ccc(F)cc1)C(=O)O	> 20	> 20
CCCC(=O)OC1(C(=O)CO)CCC2C3CCC4=CC(=O)CCC4(C)C3C(O)CC21C (stereo unspecified)	> 20	> 20
C=CCn1c(=O)n(C2OC(CO)C(O)C2O)c2nc(N)[nH]c(=O)c21 (stereo unspecified)	> 20	> 20
CN(C)[C@@H]1C(O)=C(C(N)=O)C(=O)[C@@]2(O)C(O)=C3C(=O)c4c(O)ccc(Cl)c4[C@@](C)(O)C3C[C@@H]12 (stereo partly specified)	> 20	> 20
CCCC(=O)O[C@]1(C(=O)CCl)C(C)CC2C3CCC4=CC(=O)C=CC4(C)[C@@]3(F)C(=O)CC21C (stereo partly specified)	> 20	> 20
CC(=O)OCC(=O)C1(O)CCC2C3CCC4=CC(=O)C=CC4(C)C3C(O)CC21C (stereo unspecified)	> 20	> 20
CC1=C(C(=O)O)N2C(=O)C(NC(=O)C(N)c3ccc(O)cc3)C2SC1 (stereo unspecified)	> 20	> 20
C[C@H]([C@@H](N)C(=O)N[C@@H](C(=O)O)[C@@H]1O[C@H](n2ccc(=O)[nH]c2=O)[C@@H](O)[C@H]1O)[C@@H](O)c1ccc(O)cn1	> 20	> 20

SMILES	IC50 [µM]	IC50 (read-out: pIC50 (converted)) [µM]
CC12CCC3C(CCC4=CC(=O)C=CC43C)C1CCC(=O)O2 (stereo unspecified)	> 20	> 20
C[N+]1(C)C2CCC1CC(OC(=O)C(CO)c1ccccc1)C2 (stereo unspecified)	> 20	> 20
C1=CN2CC(c3cccs3)N=C2S1 (stereo unspecified)	> 20	> 20
CCC(C)C(=O)OC1CC2(C)C(c3ccoc3)OC(=O)CC23OC2(C)OC34C(OC(=O)C(C)C)C3(O)C(OC(=O)C5(C)OC5C)C5(C)CC3(O)C(C)(C5CC(=O)OC)C14O2 (stereo unspecified)	> 20	> 20
CC(C1=C(CCN(C)C)Cc2ccccc21)c1ccccn1 (stereo unspecified)	> 20	> 20
CC1CC(C)C(=O)C(C(O)CC2CC(=O)NC(=O)C2)C1 (stereo unspecified)	> 20	> 20
CCO[C@H](COc1ccc(C(F)(F)F)cc1)CSc1ccc(OCC(=O)O)c(C)c1	> 20	> 20
C[C@H]1O[C@@H](Oc2c(-c3ccc(O)c(O)c3)oc3cc(O)cc(O)c3c2=O)[C@@H](O)[C@@H](O)[C@@H]1O	> 20	> 20
CNC(=O)Oc1ccc2c(c1)[C@]1(C)CCN(C)C1N2C (stereo partly specified)	> 20	> 20
C[Si](C)(C)c1cccc(C(=O)C(F)(F)F)c1	> 20	> 20
COc1ccc(CC(N)C(=O)NC2C(CO)OC(n3cnc4c(N(C)C)ncnc43)C2O)cc1 (stereo unspecified)	> 20	> 20
ClCCN(Cc1ccccc1)Cc1ccccc1	> 20	> 20
CCC(=O)OC(OP(=O)(CCCCc1ccccc1)CC(=O)N1C[C@H](C2CCCCC2)C[C@H]1C(=O)O)C(C)C (stereo partly specified)	> 20	> 20
CC1C2Cc3ccc(O)cc3C1(C)CCN2C (stereo unspecified)	> 20	> 20
CC1(Cn2ccnn2)[C@H](C(=O)O)N2C(=O)C[C@H]2S1(=O)=O (stereo partly specified)	> 20	> 20
CC(C)C[C@H](NC(=O)N1CCCCCC1)C(=O)N[C@H](Cc1cn(C)c2ccccc12)C(=O)N[C@H](Cc1ccccn1)C(=O)O	> 20	> 20
COc1ccc(C(=O)Nc2c(Cl)cncc2Cl)cc1OC1CCCC1	> 20	> 20
C=C[C@](C)(O)CC[C@H]1C(=C)C[C@H](O)[C@H]2C(C)(C)CCC[C@]12C	> 20	> 20
O=C(O)CC[N+](=O)[O-]	> 20	> 20
